Source: ChEMBL document CHEMBL5291721, “A preclinical secondary pharmacology resource illuminates target-adverse drug reaction associations of marketed drugs” (Nat Commun, 2023)

Experiments:
[1] = molecular target: T1, Muscarinic acetylcholine receptor M1 (Homo sapiens, UniProt P11229); type: functional
T1 sequence (P11229 whole entry): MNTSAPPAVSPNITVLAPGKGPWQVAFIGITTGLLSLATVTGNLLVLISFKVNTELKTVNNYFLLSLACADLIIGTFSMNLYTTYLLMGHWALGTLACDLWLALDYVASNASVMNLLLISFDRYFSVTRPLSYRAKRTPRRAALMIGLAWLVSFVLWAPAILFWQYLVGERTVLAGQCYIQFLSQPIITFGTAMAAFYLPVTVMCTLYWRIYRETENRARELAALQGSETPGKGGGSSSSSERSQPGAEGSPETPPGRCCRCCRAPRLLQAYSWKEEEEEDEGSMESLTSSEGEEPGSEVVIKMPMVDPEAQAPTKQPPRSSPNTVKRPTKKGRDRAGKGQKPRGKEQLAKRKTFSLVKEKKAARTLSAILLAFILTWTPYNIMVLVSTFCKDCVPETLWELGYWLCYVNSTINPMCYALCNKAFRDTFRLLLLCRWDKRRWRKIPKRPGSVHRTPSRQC

Motilin receptor = Motilin receptor (Homo sapiens, UniProt O43193)
Chain of Motilin receptor (O43193 whole entry): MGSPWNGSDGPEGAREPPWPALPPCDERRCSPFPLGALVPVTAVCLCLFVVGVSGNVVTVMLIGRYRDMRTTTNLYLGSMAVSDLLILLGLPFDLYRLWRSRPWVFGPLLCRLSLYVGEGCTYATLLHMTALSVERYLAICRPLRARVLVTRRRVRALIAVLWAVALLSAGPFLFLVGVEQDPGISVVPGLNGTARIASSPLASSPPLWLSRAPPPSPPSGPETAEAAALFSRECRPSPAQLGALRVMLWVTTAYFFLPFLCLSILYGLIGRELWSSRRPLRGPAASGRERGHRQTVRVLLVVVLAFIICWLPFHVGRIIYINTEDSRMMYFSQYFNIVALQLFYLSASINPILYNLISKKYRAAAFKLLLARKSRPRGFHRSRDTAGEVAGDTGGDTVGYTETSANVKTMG

[2] = molecular target: T2, Gastrin/cholecystokinin type B receptor (Homo sapiens, UniProt P32239)
T2 sequence (P32239 whole entry): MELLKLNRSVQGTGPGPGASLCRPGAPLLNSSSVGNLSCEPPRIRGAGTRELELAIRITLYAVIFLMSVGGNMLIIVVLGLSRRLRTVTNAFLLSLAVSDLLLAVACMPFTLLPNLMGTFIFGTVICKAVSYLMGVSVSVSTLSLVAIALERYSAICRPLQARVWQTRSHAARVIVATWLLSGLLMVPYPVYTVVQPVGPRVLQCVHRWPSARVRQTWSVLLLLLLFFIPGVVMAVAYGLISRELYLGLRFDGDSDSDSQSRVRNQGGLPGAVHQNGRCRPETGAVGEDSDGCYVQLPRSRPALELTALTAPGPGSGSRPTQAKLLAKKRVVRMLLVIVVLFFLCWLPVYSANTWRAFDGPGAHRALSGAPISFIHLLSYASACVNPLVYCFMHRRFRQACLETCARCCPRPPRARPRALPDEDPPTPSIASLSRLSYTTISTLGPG

Adenosine receptor A2a = Adenosine receptor A2a (Homo sapiens, UniProt P29274)
Chain of Adenosine receptor A2a (P29274 whole entry): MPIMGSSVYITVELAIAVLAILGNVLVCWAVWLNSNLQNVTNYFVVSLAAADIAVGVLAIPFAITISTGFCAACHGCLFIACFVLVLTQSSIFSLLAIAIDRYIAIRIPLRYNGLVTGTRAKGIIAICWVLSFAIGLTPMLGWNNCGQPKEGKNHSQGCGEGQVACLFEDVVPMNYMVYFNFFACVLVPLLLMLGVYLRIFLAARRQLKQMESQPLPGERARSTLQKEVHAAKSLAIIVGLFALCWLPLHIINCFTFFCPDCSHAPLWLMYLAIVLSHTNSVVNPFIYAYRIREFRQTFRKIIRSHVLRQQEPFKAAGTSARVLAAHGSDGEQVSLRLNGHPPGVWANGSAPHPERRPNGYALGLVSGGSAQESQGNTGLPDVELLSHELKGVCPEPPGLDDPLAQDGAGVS

[3] = molecular target: Growth hormone secretagogue receptor type 1 (Homo sapiens, UniProt Q92847)
Chain of Growth hormone secretagogue receptor type 1 (Q92847 whole entry): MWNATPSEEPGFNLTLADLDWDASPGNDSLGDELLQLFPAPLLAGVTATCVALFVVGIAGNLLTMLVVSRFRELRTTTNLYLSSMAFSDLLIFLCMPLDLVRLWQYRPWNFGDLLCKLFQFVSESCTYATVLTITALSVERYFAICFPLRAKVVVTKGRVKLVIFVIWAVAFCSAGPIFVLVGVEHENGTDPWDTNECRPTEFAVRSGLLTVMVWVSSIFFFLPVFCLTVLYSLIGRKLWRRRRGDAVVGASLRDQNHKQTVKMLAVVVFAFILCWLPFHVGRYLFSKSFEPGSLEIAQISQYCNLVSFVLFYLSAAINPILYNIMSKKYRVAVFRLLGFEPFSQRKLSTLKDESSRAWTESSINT

[4] = molecular target: 5-hydroxytryptamine receptor 2A (Homo sapiens, UniProt P28223); type: functional, cell-based
Chain of 5-hydroxytryptamine receptor 2A (P28223 whole entry): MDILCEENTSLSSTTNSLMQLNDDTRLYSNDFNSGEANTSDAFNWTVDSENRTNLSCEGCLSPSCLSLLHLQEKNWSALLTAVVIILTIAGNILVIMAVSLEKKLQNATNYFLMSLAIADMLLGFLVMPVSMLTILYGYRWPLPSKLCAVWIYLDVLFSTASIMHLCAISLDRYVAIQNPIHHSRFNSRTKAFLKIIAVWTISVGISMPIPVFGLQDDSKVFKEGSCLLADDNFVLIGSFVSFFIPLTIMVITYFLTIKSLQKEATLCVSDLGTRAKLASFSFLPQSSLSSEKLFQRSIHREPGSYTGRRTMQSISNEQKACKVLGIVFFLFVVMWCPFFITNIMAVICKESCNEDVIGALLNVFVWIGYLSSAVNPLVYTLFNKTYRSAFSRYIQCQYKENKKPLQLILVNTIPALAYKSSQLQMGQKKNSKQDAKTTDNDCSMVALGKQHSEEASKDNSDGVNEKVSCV

[5] = molecular target: T3, 5-hydroxytryptamine receptor 2C (Homo sapiens, UniProt P28335)
T3 sequence (P28335 whole entry): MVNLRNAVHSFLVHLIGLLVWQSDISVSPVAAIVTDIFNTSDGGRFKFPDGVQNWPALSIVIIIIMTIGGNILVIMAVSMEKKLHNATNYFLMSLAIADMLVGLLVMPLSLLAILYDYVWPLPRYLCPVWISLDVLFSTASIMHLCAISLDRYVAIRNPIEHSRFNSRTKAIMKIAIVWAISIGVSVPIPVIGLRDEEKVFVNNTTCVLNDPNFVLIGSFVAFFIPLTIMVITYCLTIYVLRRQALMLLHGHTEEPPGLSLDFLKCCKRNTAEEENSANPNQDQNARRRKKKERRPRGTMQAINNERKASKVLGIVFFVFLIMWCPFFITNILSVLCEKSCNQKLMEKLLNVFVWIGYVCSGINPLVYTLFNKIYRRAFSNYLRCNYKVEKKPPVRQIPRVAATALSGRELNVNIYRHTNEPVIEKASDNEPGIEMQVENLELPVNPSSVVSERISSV

[6] = molecular target: Gamma-aminobutyric acid receptor subunit alpha-1 (Rattus norvegicus, UniProt P62813)
Chain of Gamma-aminobutyric acid receptor subunit alpha-1 (P62813 whole entry): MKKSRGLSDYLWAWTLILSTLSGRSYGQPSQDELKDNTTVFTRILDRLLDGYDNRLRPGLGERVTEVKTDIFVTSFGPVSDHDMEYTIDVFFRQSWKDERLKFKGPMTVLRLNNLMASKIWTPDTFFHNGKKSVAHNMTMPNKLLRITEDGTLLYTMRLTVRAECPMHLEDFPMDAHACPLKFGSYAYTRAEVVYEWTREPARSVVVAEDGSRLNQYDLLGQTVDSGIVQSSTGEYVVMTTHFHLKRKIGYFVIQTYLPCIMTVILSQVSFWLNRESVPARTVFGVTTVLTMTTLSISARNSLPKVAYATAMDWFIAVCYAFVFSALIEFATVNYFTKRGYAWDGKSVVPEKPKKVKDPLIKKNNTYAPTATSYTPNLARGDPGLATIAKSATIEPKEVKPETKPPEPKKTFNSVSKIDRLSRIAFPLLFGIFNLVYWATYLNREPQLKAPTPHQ

[7] = molecular target: T4, Muscarinic acetylcholine receptor M2 (Homo sapiens, UniProt P08172); type: functional, cell-based
T4 sequence (P08172 whole entry): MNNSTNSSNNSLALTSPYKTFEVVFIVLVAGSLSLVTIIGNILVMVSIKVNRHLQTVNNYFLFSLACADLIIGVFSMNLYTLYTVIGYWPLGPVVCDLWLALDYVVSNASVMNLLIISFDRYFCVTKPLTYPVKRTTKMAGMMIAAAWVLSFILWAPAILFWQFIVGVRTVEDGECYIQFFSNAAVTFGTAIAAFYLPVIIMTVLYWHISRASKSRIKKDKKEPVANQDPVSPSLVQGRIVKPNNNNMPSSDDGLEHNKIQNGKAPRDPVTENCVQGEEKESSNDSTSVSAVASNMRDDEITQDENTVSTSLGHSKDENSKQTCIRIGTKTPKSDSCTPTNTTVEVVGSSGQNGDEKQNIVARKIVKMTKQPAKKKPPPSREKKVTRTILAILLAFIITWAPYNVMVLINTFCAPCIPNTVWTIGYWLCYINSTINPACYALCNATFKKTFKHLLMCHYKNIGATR

[8] = molecular target: Sodium-dependent serotonin transporter (Homo sapiens, UniProt P31645)
Chain of Sodium-dependent serotonin transporter (P31645 whole entry): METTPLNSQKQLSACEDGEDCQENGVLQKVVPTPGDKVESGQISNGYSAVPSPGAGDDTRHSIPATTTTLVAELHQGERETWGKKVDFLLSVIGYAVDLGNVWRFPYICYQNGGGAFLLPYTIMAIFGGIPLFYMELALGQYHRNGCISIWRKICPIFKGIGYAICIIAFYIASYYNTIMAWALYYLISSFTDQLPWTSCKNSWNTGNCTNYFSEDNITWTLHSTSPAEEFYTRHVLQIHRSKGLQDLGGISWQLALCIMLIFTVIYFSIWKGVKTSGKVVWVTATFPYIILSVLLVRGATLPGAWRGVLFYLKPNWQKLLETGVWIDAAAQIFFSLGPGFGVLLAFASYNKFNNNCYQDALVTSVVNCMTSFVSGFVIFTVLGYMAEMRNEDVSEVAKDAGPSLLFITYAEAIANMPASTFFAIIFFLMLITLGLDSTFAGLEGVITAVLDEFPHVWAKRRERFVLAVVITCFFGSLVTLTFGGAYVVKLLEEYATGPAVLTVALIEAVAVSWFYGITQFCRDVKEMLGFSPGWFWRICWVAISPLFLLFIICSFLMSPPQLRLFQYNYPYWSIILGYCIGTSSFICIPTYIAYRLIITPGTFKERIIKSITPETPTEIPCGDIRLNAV

[9] = molecular target: 5-hydroxytryptamine receptor 2B (Homo sapiens, UniProt P41595); type: functional, cell-based
Chain of 5-hydroxytryptamine receptor 2B (P41595 whole entry): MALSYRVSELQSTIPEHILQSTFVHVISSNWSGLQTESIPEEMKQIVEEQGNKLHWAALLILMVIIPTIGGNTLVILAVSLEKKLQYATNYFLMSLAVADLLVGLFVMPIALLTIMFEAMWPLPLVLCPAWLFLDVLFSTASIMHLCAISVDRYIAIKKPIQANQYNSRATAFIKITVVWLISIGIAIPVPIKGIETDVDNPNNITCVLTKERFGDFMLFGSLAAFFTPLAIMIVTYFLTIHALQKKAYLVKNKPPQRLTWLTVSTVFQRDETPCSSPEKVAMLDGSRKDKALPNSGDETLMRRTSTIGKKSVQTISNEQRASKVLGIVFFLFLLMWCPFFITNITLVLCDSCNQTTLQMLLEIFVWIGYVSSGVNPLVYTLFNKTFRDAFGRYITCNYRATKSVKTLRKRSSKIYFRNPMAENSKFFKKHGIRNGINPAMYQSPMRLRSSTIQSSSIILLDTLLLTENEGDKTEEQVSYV

[10] = molecular target: Sodium-dependent dopamine transporter (Homo sapiens, UniProt Q01959)
Chain of Sodium-dependent dopamine transporter (Q01959 whole entry): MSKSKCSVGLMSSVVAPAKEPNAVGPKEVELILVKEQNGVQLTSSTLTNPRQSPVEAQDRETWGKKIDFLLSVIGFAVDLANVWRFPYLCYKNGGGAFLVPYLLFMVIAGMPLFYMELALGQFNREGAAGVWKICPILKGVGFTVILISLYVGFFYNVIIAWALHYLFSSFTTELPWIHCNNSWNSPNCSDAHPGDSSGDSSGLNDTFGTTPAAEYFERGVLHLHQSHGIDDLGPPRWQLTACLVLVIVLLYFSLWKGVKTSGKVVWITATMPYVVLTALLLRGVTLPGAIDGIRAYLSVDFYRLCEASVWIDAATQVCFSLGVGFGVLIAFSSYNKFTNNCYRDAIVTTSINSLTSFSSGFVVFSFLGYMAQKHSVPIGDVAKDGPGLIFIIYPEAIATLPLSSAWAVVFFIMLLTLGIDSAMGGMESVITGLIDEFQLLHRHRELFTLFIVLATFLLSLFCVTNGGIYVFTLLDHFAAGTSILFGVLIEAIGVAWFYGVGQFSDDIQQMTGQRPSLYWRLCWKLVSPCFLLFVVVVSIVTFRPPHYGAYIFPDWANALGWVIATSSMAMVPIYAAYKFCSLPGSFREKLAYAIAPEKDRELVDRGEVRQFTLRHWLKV

D(3) dopamine receptor = D(3) dopamine receptor (Homo sapiens, UniProt P35462)
Chain of D(3) dopamine receptor (P35462 whole entry): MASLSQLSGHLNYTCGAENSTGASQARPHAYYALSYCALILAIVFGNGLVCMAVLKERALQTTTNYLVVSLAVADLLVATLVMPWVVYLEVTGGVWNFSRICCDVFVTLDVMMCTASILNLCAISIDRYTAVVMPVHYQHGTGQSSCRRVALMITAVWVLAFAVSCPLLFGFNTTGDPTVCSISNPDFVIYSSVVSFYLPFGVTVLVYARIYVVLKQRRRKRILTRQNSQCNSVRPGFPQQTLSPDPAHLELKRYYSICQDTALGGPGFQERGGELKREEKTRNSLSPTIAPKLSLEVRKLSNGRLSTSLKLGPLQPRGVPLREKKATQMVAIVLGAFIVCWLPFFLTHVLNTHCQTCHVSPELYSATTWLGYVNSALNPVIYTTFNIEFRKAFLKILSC

Cannabinoid receptor 1 = Cannabinoid receptor 1 (Homo sapiens, UniProt P21554); type: functional, cell-based
Chain of Cannabinoid receptor 1 (P21554 whole entry): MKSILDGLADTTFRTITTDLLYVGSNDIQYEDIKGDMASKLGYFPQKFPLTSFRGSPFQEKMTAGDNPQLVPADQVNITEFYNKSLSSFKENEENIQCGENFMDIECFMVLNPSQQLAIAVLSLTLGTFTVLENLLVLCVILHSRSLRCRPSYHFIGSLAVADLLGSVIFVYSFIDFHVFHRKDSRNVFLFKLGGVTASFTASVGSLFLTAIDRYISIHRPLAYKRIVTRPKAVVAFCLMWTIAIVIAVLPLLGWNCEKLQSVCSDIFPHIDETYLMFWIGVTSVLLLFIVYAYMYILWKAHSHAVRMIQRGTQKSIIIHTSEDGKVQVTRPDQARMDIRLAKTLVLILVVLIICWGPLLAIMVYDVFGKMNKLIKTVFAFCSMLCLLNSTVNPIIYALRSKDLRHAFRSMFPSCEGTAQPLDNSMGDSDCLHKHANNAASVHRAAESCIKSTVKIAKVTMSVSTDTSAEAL

[11] = molecular target: T5, Alpha-2C adrenergic receptor (Homo sapiens, UniProt P18825); type: functional
T5 sequence (P18825 whole entry): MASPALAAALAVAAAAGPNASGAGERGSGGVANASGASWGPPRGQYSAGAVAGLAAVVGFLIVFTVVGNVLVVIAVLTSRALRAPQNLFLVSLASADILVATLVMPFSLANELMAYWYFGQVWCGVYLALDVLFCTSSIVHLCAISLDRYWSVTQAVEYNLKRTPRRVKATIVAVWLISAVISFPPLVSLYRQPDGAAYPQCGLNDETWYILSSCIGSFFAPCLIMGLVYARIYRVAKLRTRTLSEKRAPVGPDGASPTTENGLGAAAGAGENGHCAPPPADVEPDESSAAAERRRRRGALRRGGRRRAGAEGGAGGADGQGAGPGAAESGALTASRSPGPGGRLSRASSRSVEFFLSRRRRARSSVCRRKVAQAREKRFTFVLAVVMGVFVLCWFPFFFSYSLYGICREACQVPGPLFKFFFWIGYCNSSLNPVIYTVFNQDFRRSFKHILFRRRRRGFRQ
Further: assay procedure not described here.

SMILES | AC50 [1] | AC50 (Motilin receptor) | AC50 [2] | AC50 (Adenosine receptor A2a) | AC50 [3] | AC50 [4] | AC50 [5] | AC50 [6] | AC50 [7] | AC50 [8] | AC50 [9] | AC50 [10] | AC50 (D(3) dopamine receptor) | AC50 (Cannabinoid receptor 1) | AC50 [11]
CCC1(CC)C(=O)NCC(C)C1=O (stereo not given) [METHYPRYLON] | > 30 µM | > 30 µM | > 30 µM | > 30 µM | > 30 µM | > 30 µM | > 30 µM | > 30 µM | > 30 µM | > 30 µM | > 30 µM | > 30 µM | > 30 µM | > 30 µM | > 30 µM
CCOC(=O)[N-]c1cn(N2CCOCC2)n[o+]1 [MOLSIDOMINE] | > 30 µM | > 30 µM | > 30 µM | > 30 µM | > 30 µM | > 30 µM | > 30 µM | > 30 µM | > 30 µM | > 30 µM | > 30 µM | > 30 µM | > 30 µM | > 30 µM | > 30 µM
OC(CNCC(O)C1CCc2cc(F)ccc2O1)C1CCc2cc(F)ccc2O1 (stereo not given) [NEBIVOLOL] | 19 µM | 21 µM | > 30 µM | > 30 µM | 4.6 µM | > 30 µM | 20 µM | > 30 µM | > 30 µM | 0.75 µM | > 30 µM | 3.2 µM | 2 µM | > 30 µM | 2 µM
CCCc1nc(C(C)(C)O)c(C(=O)OCc2oc(=O)oc2C)n1Cc1ccc(-c2ccccc2-c2nnn[nH]2)cc1 [OLMESARTAN MEDOXOMIL] | > 10 µM | > 10 µM | > 50 µM | > 10 µM | > 50 µM | > 30 µM | > 10 µM | > 10 µM | > 10 µM | > 30 µM | > 10 µM | > 30 µM | > 10 µM | > 30 µM | > 10 µM
O=C(O)/C=C/c1ccc(Cn2ccnc2)cc1 [OZAGREL] | > 30 µM | > 30 µM | > 30 µM | > 30 µM | > 30 µM | > 30 µM | > 30 µM | > 30 µM | > 30 µM | > 30 µM | > 30 µM | > 30 µM | > 30 µM | > 30 µM | > 30 µM
Clc1ccc(CCCOCCCN2CCCCC2)cc1 [PITOLISANT] | > 30 µM | > 30 µM | > 30 µM | > 30 µM | > 30 µM | > 30 µM | > 30 µM | > 30 µM | > 30 µM | 9.9 µM | > 30 µM | 8.5 µM | > 30 µM | > 30 µM | 6 µM
CN1CCC(=C2c3ccccc3CCc3sccc32)CC1 [PIZOTYLINE] | 0.093 µM | > 10 µM | > 30 µM | > 30 µM | > 30 µM | > 30 µM | 0.017 µM | > 10 µM | > 30 µM | 8.88 µM | > 30 µM | 13.4 µM | 4.3 µM | > 30 µM | 2.1 µM
Cc1ccc(-n2nccn2)c(C(=O)N2CCN(c3nc4cc(Cl)ccc4o3)CC[C@H]2C)c1 [SUVOREXANT] | > 30 µM | > 30 µM | > 30 µM | > 30 µM | > 30 µM | > 30 µM | > 30 µM | > 30 µM | > 30 µM | > 30 µM | > 30 µM | > 10 µM | > 30 µM | > 30 µM | > 30 µM
CN1C(=O)C(O)N=C(c2ccccc2)c2cc(Cl)ccc21 (stereo not given) [TEMAZEPAM] | > 10 µM | > 10 µM | > 30 µM | > 30 µM | > 30 µM | > 30 µM | > 30 µM | > 10 µM | > 10 µM | > 10 µM | > 10 µM | > 10 µM | > 10 µM | > 30 µM | > 10 µM
CCN(CC)C(=O)N[C@H]1C[C@@H]2c3cccc4[nH]cc(c34)C[C@H]2N(C)C1 [TERGURIDE] | > 30 µM | > 30 µM | > 30 µM | > 30 µM | > 30 µM | 0.48 µM | 0.21 µM | > 30 µM | > 30 µM | > 30 µM | > 30 µM | > 30 µM | 0.006 µM | > 30 µM | 0.0031 µM
CC(CC(c1ccccc1)c1ccccc1)NC(C)(C)C (stereo not given) [TERODILINE] | 1.4 µM | > 30 µM | > 30 µM | > 30 µM | > 30 µM | > 30 µM | > 30 µM | > 30 µM | > 30 µM | > 30 µM | > 30 µM | 20 µM | > 30 µM | > 30 µM | > 30 µM
COc1cc2c(N)nc(N3CCN(C(=O)OCC(C)(C)O)CC3)nc2c(OC)c1OC [TRIMAZOSIN] | > 30 µM | > 30 µM | > 30 µM | > 30 µM | > 30 µM | > 30 µM | > 30 µM | > 30 µM | > 30 µM | > 30 µM | > 30 µM | > 30 µM | > 30 µM | > 30 µM | 13 µM
